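Five concentrations, 48 hours, 96-well plates. The concentration for 50% growth inhibition is given as GI50. TGI denotes the concentration required for complete inhibition of growth.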
Tests used:
Experiment in all cases: growth of human tumour cells (NCI), 48 h
SN12C renal = test system: SN12C renal
SF-295 CNS = test system: SF-295 CNS
LOX IMVI melanoma = test system: LOX IMVI melanoma
IGROV1 ovarian = test system: IGROV1 ovarian
TK-10 renal = test system: TK-10 renal
UO-31 renal = test system: UO-31 renal
MCF7 breast = test system: MCF7 breast
SK-MEL-5 melanoma = test system: SK-MEL-5 melanoma
SNB-19 CNS = test system: SNB-19 CNS
HOP-62 NSCLC = test system: HOP-62 NSCLC
SK-MEL-28 melanoma = test system: SK-MEL-28 melanoma
OVCAR-8 ovarian = test system: OVCAR-8 ovarian
M14 melanoma = test system: M14 melanoma
RXF 393 renal = test system: RXF 393 renal
UACC-257 melanoma = test system: UACC-257 melanoma
T-47D breast = test system: T-47D breast
PC-3 prostate = test system: PC-3 prostate
HT29 colon = test system: HT29 colon
EKVX NSCLC = test system: EKVX NSCLC
OVCAR-4 ovarian = test system: OVCAR-4 ovarian
BT-549 breast = test system: BT-549 breast
CCRF-CEM leukemia = test system: CCRF-CEM leukemia
KM12 colon = test system: KM12 colon
UACC-62 melanoma = test system: UACC-62 melanoma
K-562 leukemia = test system: K-562 leukemia
RPMI-8226 leukemia = test system: RPMI-8226 leukemia
SK-OV-3 ovarian = test system: SK-OV-3 ovarian
OVCAR-5 ovarian = test system: OVCAR-5 ovarian
HS 578T breast = test system: HS 578T breast

Q: How did the GI50 (SN12C renal) turn out when `COc1ccc2c3ccnc(C(F)(F)F)c3n(CCCCN)c2c1` was run?
A: 10.5 µM

Q: And the TGI (SN12C renal)?
A: 28.7 µM

Q: And the GI50 (SF-295 CNS)?
A: 6.71 µM

Q: What about the TGI (SF-295 CNS) of the same compound?
A: 22.6 µM

Q: And the GI50 (LOX IMVI melanoma)?
A: 4.38 µM

Q: What about the TGI (LOX IMVI melanoma) of the same compound?
A: 17 µM

Q: And the GI50 (IGROV1 ovarian)?
A: 3.39 µM

Q: And the TGI (IGROV1 ovarian)?
A: 14.5 µM

Q: And the GI50 (TK-10 renal)?
A: 7.06 µM

Q: What about the TGI (TK-10 renal) of the same compound?
A: 19.3 µM

Q: And the GI50 (UO-31 renal)?
A: 1.6 µM

Q: What about the TGI (UO-31 renal) of the same compound?
A: 8.36 µM

Q: And the GI50 (MCF7 breast)?
A: 4.61 µM

Q: What about the TGI (MCF7 breast) of the same compound?
A: 17.4 µM

Q: And the GI50 (SK-MEL-5 melanoma)?
A: 2.83 µM

Q: What about the TGI (SK-MEL-5 melanoma) of the same compound?
A: 9.05 µM

Q: And the GI50 (SNB-19 CNS)?
A: 12.2 µM

Q: What about the TGI (SNB-19 CNS) of the same compound?
A: 30.7 µM

Q: What about the GI50 (HOP-62 NSCLC) of the same compound?
A: 8.54 µM

Q: And the TGI (HOP-62 NSCLC)?
A: 21.3 µM

Q: And the GI50 (SK-MEL-28 melanoma)?
A: 1.92 µM

Q: What about the TGI (SK-MEL-28 melanoma) of the same compound?
A: 3.82 µM

Q: What about the GI50 (OVCAR-8 ovarian) of the same compound?
A: 8.95 µM

Q: What about the TGI (OVCAR-8 ovarian) of the same compound?
A: 26.4 µM

Q: And the GI50 (M14 melanoma)?
A: 4.93 µM

Q: What about the TGI (M14 melanoma) of the same compound?
A: 17.3 µM

Q: What about the GI50 (RXF 393 renal) of the same compound?
A: 2.3 µM

Q: And the TGI (RXF 393 renal)?
A: 6.93 µM

Q: And the GI50 (UACC-257 melanoma)?
A: 3.02 µM

Q: And the TGI (UACC-257 melanoma)?
A: 8.41 µM

Q: What about the GI50 (T-47D breast) of the same compound?
A: 6.86 µM

Q: And the TGI (T-47D breast)?
A: 23.8 µM

Q: What about the GI50 (PC-3 prostate) of the same compound?
A: 1.96 µM

Q: And the TGI (PC-3 prostate)?
A: 13.9 µM

Q: What about the GI50 (HT29 colon) of the same compound?
A: 4.01 µM

Q: And the TGI (HT29 colon)?
A: 15.8 µM

Q: And the GI50 (EKVX NSCLC)?
A: 5.42 µM

Q: And the TGI (EKVX NSCLC)?
A: 23.6 µM

Q: And the GI50 (OVCAR-4 ovarian)?
A: 11.7 µM

Q: What about the TGI (OVCAR-4 ovarian) of the same compound?
A: 25.5 µM

Q: And the GI50 (BT-549 breast)?
A: 3.04 µM

Q: What about the TGI (BT-549 breast) of the same compound?
A: 12.5 µM

Q: And the GI50 (CCRF-CEM leukemia)?
A: 9.02 µM

Q: And the TGI (CCRF-CEM leukemia)?
A: 47.8 µM

Q: What about the GI50 (KM12 colon) of the same compound?
A: 5.1 µM

Q: And the TGI (KM12 colon)?
A: 17.6 µM

Q: What about the GI50 (UACC-62 melanoma) of the same compound?
A: 10.8 µM

Q: And the TGI (UACC-62 melanoma)?
A: 23.2 µM

Q: And the GI50 (K-562 leukemia)?
A: 5.73 µM

Q: What about the TGI (K-562 leukemia) of the same compound?
A: 22.8 µM

Q: And the GI50 (RPMI-8226 leukemia)?
A: 3.05 µM

Q: What about the TGI (RPMI-8226 leukemia) of the same compound?
A: 15.8 µM

Q: What about the GI50 (SK-OV-3 ovarian) of the same compound?
A: 10.5 µM

Q: And the TGI (SK-OV-3 ovarian)?
A: 25.3 µM

Q: And the GI50 (OVCAR-5 ovarian)?
A: 8.62 µM

Q: What about the TGI (OVCAR-5 ovarian) of the same compound?
A: 22.4 µM

Q: What about the GI50 (HS 578T breast) of the same compound?
A: 4.09 µM

From PubChem BioAssay (NCI)
